Laboratory results: patent US20140179780A1, “PHARMACEUTICAL COMPOSITION CONTAINING OLEANOLIC ACID ACETATE AS AN ACTIVE INGREDIENT FOR PREVENTING OR TREATING TLR- OR IL-6-MEDIATED DISEASES” (Korea Research Institute of Bioscience and Biotechnology, priority 2011, published 2014)
“And” between values parts separate entries of the source, which are not always exact repeats. Equal entries are not always repeated. Where two headings read alike, the source gives them in different places.

Experiments:
[1] = tested on: poly(I:C)-induced NFkB/AP-1 dependent SEAP activity (TLR3 signaling pathway); assay: Poly(I:C)-induced NFkB/AP-1-dependent SEAP activity in THP1-Blue-CD14 cells; assay type: cell-based, Human; details: for Effect on poly(I:C)-induced SEAP activity (in words): THP-1-blue cells
Protocol: (§1) THP1-Blue-CD14 cells were seeded at a density of 2×10^5 cells/100 μl in a 96-well plate, and cultured at 37° C. for 3 hours.

[2] = tested on: poly(I)-induced NFkB/AP-1 dependent SEAP activity (TLR7 signaling pathway); assay: Poly(I)-induced NFkB/AP-1-dependent SEAP activity in THP1-Blue-CD14 cells; assay type: cell-based, Human; details: for Effect on poly(I)-induced SEAP activity (in words): THP-1-blue cells
Protocol: as §1

[3] = tested on: IL-6-induced STAT3 transcriptional activation; assay: IL-6 reactive STAT3 reporter gene (luciferase) assay in Hep3B cells; assay type: cell-based; details: for Effect on STAT3 luciferase activity (in words): IL-6; for Inhibition (%) of STAT3 luciferase activity / IC50: IL-6 10 ng/ml; for IC50: read-out: IC50, inhibition of IL-6-induced STAT3 luciferase activity
Protocol: pStat3-Luc and pcDNA3.1(+) (Clontech laboratories, Palo Alto, Calif.) were transfected into Hep3B cells (ATCC HB-8064) using lipofectamine plus (Invitrogen, Carlsbad, Calif., USA) at the same time. 2 days later, the cells were treated with hygromycin (100 μg/ml) to obtain clones stably expressing luciferase. Luciferase analysis was performed to examine whether luciferase is stably expressed in the clones.
The transfected cells in the clones obtained in Example 5-1 were cultured in DMEM (GIBCO 119950965) under serum starvation, and the samples were treated for 1 hour as follows. 10 ng/ml IL-6 (R&D system, USA) was added thereto, followed by cultivation for 12 hours.
The cultured cells were washed with PBS and 50 μl of lysis buffer (luciferase assay system, promega, USA) was added thereto, followed by stirring for 20 minutes. 30-100 μl of luciferase substrate (luciferase assay system, promega, USA) was added to measure […] using a luminometer (EG&G BERTHOLD, USA) within 5 minutes (Tables 5 and 6).
In detail, the inhibitory effects of oleanolic acid or oleanolic acid acetate on STAT3 luciferase activity was measured in the same manner as in Example 5-2, except that oleanolic acid or oleanolic acid acetate was treated as a sample in an amount of 0.1, 1, 3, 6 or 10 μM, respectively and compared with each other (FIG. 14).

[4] = tested on: osteoclast differentiation from bone marrow macrophages; assay: RNAKL-induced osteoclast differentiation of bone marrow macrophages (TRAP staining); assay type: cell-based, mouse; details: for Osteoclast differentiation (number and size of TRAP-positive osteoclasts): M-CSF 30 ng/ml, RNAKL 50 ng/ml, 4 days
Protocol: Femurs and tibia were removed from 5-week-old mice, and the bone cavity was washed using a 1 cc syringe to obtain bone marrow cells. The isolated bone marrow cells were cultured in α-MEM (α-minimum essential medium) containing 10% FBS, antibiotic, M-CSF (30 ng/ml) for 3 days. 3 days later, the adherent cells were used as bone marrow macrophage (BMM). The bone marrow macrophages were cultured by addition of M-CSF (30 ng/ml) and an osteoclast differentiation factor RNAKL (Receptor activator of nuclear factor kappa-B ligand) (50 ng/ml) and treated with the adzuki bean extract and oleanolic acid acetate at each concentration. 4 days later, the cultured cells were stained with a TRAP solution (Sigma Aldrich, USA), and red stained cells were determined as differentiated osteoclasts.

STAT3 phosphorylation = assay: IL-6-induced STAT3 phosphorylation in Hep3B cells (Western blot); assay type: cell-based; details: IL-6 20 ng/ml 20 minutes, FIGS. 8a, 8b
Protocol: Hep3B cells were seeded in a 6-well plate at a density of 5×10^5 per well, and cultured to a confluency of 80% in a culture plate. Then, the medium was replaced with serum-free medium and further cultured for 12 hours, and the samples were treated for 60 minutes as follows.
Next, 20 ng/ml of IL-6 was treated, and reacted for 20 minutes, and 40 μl of lysis buffer (pH 8, 20 mM Tris-HCl, 137 mM NaCl, 10% glycerol, 1% Triton X-100, 1 mM Na3VO4, 2 mM EDTA, 1 mM APMSF, 20 μM leupeptin, 20 μg/ml aprotonin; Sigma, USA) was used for cell lysis. Centrifugation (13000 g, 15 minutes) was performed to obtain supernatants containing proteins. Protein concentrations were quantified using a DC protein assay kit (Bio-Rad, USA), and proteins were loaded in a 4˜12% SDS polyacrylamide gel (SDS-PAGE) and electrophoresis was performed at 175 mA for 2 hours. After electrophoresis, the proteins of the gel were transferred onto a PVDF membrane (Westran S, pore size […]; Whatman, USA) at 35 V for 90 minutes. The transferred membrane was blocked with Tris-buffer (T-TBS; 50 mM Tri-HCl, pH 7.6, 150 mM NaCl, 0.2% Tween-20, 5% skim milk; Sigma, USA) at room temperature for 1 hour, and washed with T-TBS five times. The membrane was treated with polyclonal antibody of phospho-STAT3 (1:1000 dilution) as a primary antibody at 4° C. 12 hours. […]

[5] = Homo sapiens, sample 30 μM, poly(I:C) 100 μg/ml, read-out: Inhibition (%) of poly(I:C)-induced SEAP activity
[6] = Homo sapiens, sample 60 μM, poly(I:C) 100 μg/ml, read-out: Inhibition (%) of poly(I:C)-induced SEAP activity
[7] = Homo sapiens, sample 30 μM, poly(I) 50 μg/ml, read-out: Inhibition (%) of poly(I)-induced SEAP activity
[8] = Homo sapiens, sample 60 μM, poly(I) 50 μg/ml, read-out: Inhibition (%) of poly(I)-induced SEAP activity
[9] = Homo sapiens, read-out: Inhibition (%) of poly(I:C)-induced SEAP activity
[10] = Homo sapiens, read-out: Inhibition (%) of poly(I)-induced SEAP activity

## O=c1cc(-c2ccc(O)c(O)c2)oc2cc(O)cc(O)c12 [Luteolin, reference compound]
[1]; [5]
  inhibition at 30 µM: 47.7%
[1]; [6]
  inhibition at 60 µM: 67.3%
[2]; [7]
  inhibition at 30 µM: 79.2%
[2]; [8]
  inhibition at 60 µM: 96.3%

## OC[C@H]1O[C@@H](Oc2cc(O)c3c(c2)O[C@H](c2ccc(O)c(O)c2)[C@@H](O)C3)[C@H](O)[C@@H](O)[C@@H]1O [Catechin-7-glucopyranoside, catechin-7-glucopyranoside, reference compound]
[3]
  Effect on STAT3 luciferase activity (in words): did not show the inhibitory effect
[3]; sample 30 μM
  Inhibition (%) of STAT3 luciferase activity: 8.3%
[3]; sample 60 μM
  Inhibition (%) of STAT3 luciferase activity: 15.9%
[3]; sample 100 μM
  Inhibition (%) of STAT3 luciferase activity: 0.4%
[1]
  Effect on poly(I:C)-induced SEAP activity (in words): did not affect
[1]; sample 30 μM, poly(I:C) 100 μg/ml
  Inhibition (%) of poly(I:C)-induced SEAP activity: 13.19%
[1]; sample 60 μM, poly(I:C) 100 μg/ml
  Inhibition (%) of poly(I:C)-induced SEAP activity: 11.16%
[2]
  Effect on poly(I)-induced SEAP activity (in words): did not affect

## O=c1c(-c2ccc(O)cc2)coc2cc(O)cc(O)c12 [Genistein, reference compound]
[3]; sample 100 μM
  Inhibition (%) of STAT3 luciferase activity: 95.2% and 95.1% and 95.4%

## CC[C@H](/C=C/[C@@H](C)[C@H]1CC[C@H]2[C@@H]3CC=C4C[C@@H](O)CC[C@]4(C)[C@H]3CC[C@]12C)C(C)C [Stigmasterol, (3S,8S,9S,10R,13R,14S,17R)-17-[(E,2R,5S)-5-ethyl-6-methylhept-3-en-2-yl]-10,13-dimethyl-2,3,4,7,8,9,11,12,14,15,16,17-dodecahydro-1H-cyclopenta[a]phenanthren-3-ol]
[3]; Homo sapiens
  IC50: 90000 nM
[3]
  Effect on STAT3 luciferase activity (in words): inhibited STAT3 luciferase activity in a concentration dependent manner
[3]; sample 60 μM
  Inhibition (%) of STAT3 luciferase activity: 29.4%
[3]; sample 100 μM
  Inhibition (%) of STAT3 luciferase activity: 58.4%
[1]; [9]
  inhibition at 30 µM: 8.71%
  inhibition at 60 µM: 4.92%
  inhibition at 100 µM: < 0%
[1]
  Effect on poly(I:C)-induced SEAP activity (in words): did not show the inhibitory activity
[2]; [10]
  inhibition at 30 µM: < 0%
  inhibition at 60 µM: 2.63%
  inhibition at 100 µM: 1.42%
[2]
  Effect on poly(I)-induced SEAP activity (in words): did not show the inhibitory activity

## CC1(C)CC[C@]2(C(=O)O)CC[C@]3(C)C(=CC[C@@H]4[C@@]5(C)CC[C@H](O)C(C)(C)[C@@H]5CC[C@]43C)[C@@H]2C1 [oleanolic acid]
[3]; sample 10 μM
  Inhibition (%) of STAT3 luciferase activity: approximately 14%

## CC(=O)O[C@H]1CC[C@@]2(C)C(CC[C@]3(C)[C@@H]2CC=C2[C@H]4CC(C)(C)CC[C@]4(C(=O)O)CC[C@]23C)C1(C)C (stereo partly drawn) [Oleanolic acid acetate, 4aS,6aR,6aS,6bR,8aR,10S,12aR,14bS)-10-hydroxy-2,2,6a,6b,9,9,12a-heptamethyl-1,3,4,5,6,6a,7,8,8a,10,11,12,13,14b-tetradecahydropicene-4a-carboxylic acid acetate]
[4]; 10 μM
  Osteoclast differentiation: remarkable effect
[4]
  Osteoclast differentiation (number and size of TRAP-positive osteoclasts): remarkably inhibited
[4]; listed as compound of Chemical Formula 1
  Osteoclast differentiation (number and size of TRAP-positive osteoclasts): reduced in a concentration-dependent manner
STAT3 phosphorylation
  IL-6-induced STAT3 phosphorylation: showed the inhibitory effects
[3]; Homo sapiens
  IC50: < 1000 nM
[3]
  Effect on STAT3 luciferase activity (in words): inhibited STAT3 luciferase activity in a concentration dependent manner
  IC50: 900 nM
[3]; sample 1 μM
  Inhibition (%) of STAT3 luciferase activity: 51.2%
[3]; sample 3 μM
  Inhibition (%) of STAT3 luciferase activity: 84.3%
[3]; sample 6 μM
  Inhibition (%) of STAT3 luciferase activity: 95.1%
[3]; sample 10 μM
  Inhibition (%) of STAT3 luciferase activity: 97.2%
[3]; sample 30 μM
  Inhibition (%) of STAT3 luciferase activity: 100%
[1]; [9]
  inhibition at 10 µM: < 0%
  inhibition at 30 µM: 9.28%
  inhibition at 60 µM: 47.2%
  inhibition at 100 µM: 64.4%
[1]
  Effect on poly(I:C)-induced SEAP activity (in words): significantly inhibited
[2]; [10]
  inhibition at 10 µM: 2.02%
  inhibition at 30 µM: 43.9%
  inhibition at 60 µM: 74.6%
  inhibition at 100 µM: 83%
[2]
  Effect on poly(I)-induced SEAP activity (in words): significantly inhibited

## C[C@@H]1O[C@@H](OC[C@H]2O[C@@H](Oc3c(-c4ccc(O)c(O)c4)oc4cc(O)cc(O)c4c3=O)[C@H](O)[C@@H](O)[C@@H]2O)[C@H](O)[C@H](O)[C@H]1O [Rutin, rutin, reference compound]
[1]; [5]
  inhibition at 30 µM: < 0%
[1]; [6]
  inhibition at 60 µM: < 0%
[2]; [7]
  inhibition at 30 µM: < 0%
[2]; [8]
  inhibition at 60 µM: < 0%
